The values that follow come from patent publication US20260097047A1, “Small molecule inhibitors of the ribosome biogenesis factor NVL2” (Board of Regents, The University of Texas System, priority 2023, published 2026).

The structures appear in SMILES notation.

In the first test the test system is HCT116 cells. The test can be described thus: Cell viability assay (CellTiter-Glo, 72 hours) in HCT116 human colorectal cancer cells. To be noted: Homo sapiens, HCT-116; Table 3; HCT116, 72 hours; read-out: Activity. In kind it is cell-based. In outline:
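Ten-point IC50 came from an asymmetric five-parameter fit of luminescence corrected to vehicle wells. ATP content was measured by CellTiter-Glo 72 h after dosing at 37 °C. Cells were seeded at 2,000/well the day before, with 0.5% DMSO in all wells.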
`CC#CCN1C(=O)c2ccccc2Sc2cc(NC(=O)Nc3ccc(OC(F)F)cc3)ccc21` [Table 3: —CH2CCMe; 4-F2HCOPh; CH/CH, 1-(10-(But-2-yn-1-yl)-11-oxo-10,11-dihydrodibenzo[b,f][1,4]thiazepin-7-yl)-3-(4-(difluoromethoxy)phenyl) urea]: the IC50 is < 500 nM.

Still in this test, the particulars now being: Homo sapiens, HCT-116; Table 5; HCT116, 72 hours; read-out: Activity.
In the case of `CC#CCN1C(=O)c2ccccc2Cc2cc(Nc3ncccc3F)ccc21` [5-(But-2-yn-1-yl)-2-((3-fluoropyridin-2-yl)amino)-5H-dibenzo[b,e]azepin-6 (11H)-one], the IC50 was < 500 nM.

Take `CC#CCN1C(=O)c2ccc(C#N)cc2Sc2cc(Nc3nccc(C#N)c3C)ccc21` [10-(But-2-yn-1-yl)-7-((4-cyano-3-methylpyridin-2-yl)amino)-11-oxo-10,11-dihydrodibenzo[b,f][1,4]thiazepine-3-carbonitrile]: the IC50 is < 500 nM.

Regarding `CC#CCN1C(=O)c2ccc(F)cc2Sc2cc(Nc3ncccc3OC)ccc21` [10-(But-2-yn-1-yl)-3-fluoro-7-((3-methoxypyridin-2-yl)amino)dibenzo[b,f][1,4]thiazepin-11 (10H)-one], the IC50 was < 500 nM.

With `CC#CCN1C(=O)c2ccccc2Cc2cc(Nc3ncccc3C#N)ccc21` [2-((5-(But-2-yn-1-yl)-6-oxo-6,11-dihydro-5H-dibenzo[b,e]azepin-2-yl)amino) nicotinonitrile], the IC50 was < 500 nM.

The same test, now with this note: Homo sapiens, HCT-116; Table 6; HCT116, 72 hours; read-out: Activity.
As to `CC#CCN1C(=O)c2ccccc2Sc2cc(NC3CC4CCC3C4)ccc21` (stereo not drawn) [7-(Bicyclo[2.2.1]heptan-2-ylamino)-10-(but-2-yn-1-yl)dibenzo[b,f][1,4]thiazepin-11 (10H)-one], the IC50 was < 500 nM.

With `CC#CCN1C(=O)c2ccccc2Sc2cc(NC3CCCC3)ccc21` [Table 6: —CH2CCMe; cPent; CH/CH; S, 10-(But-2-yn-1-yl)-7-(cyclopentylamino)dibenzo[b,f][1,4]thiazepin-11 (10H)-one], the IC50 is < 500 nM.

Staying with this test, now noted: Homo sapiens, HCT-116; read-out: IC50s (cellular activity of MM017 derivatives).
In the case of `COCCN1C(=O)c2ccccc2Sc2cc(NC(=O)c3ccccc3OC)ccc21` [compound 5], the IC50 stood at 13000 nM.

The same test, now with this note: Table 3; HCT116, 72 hours; read-out: Activity.
For the compound `CC#CCN1C(=O)c2ccccc2Sc2cc(NC(=O)Nc3ccc4scnc4c3)cnc21`, the IC50 was < 500 nM.

In the case of `CC#CCN1C(=O)c2ccccc2Sc2cc(NC(=O)NC34CC(OC)(C3)C4)ccc21`, the IC50 is < 500 nM.

As to `CC#CCN1C(=O)c2ccccc2Sc2cc(NC(=O)Nc3ccc4oc(C)nc4c3)ccc21`, the IC50 was < 500 nM.

Still in this test, the particulars now being: Table 4; HCT116, 72 hours; read-out: Activity.
Consider `CC#CCN1C(=O)c2ccccc2Sc2cc(NC(=S)N[C@H]3C[C@H](O)C3)ccc21` [Table 4: —CH2CCMe; trans-3-OH-cBu; CH], for which the IC50 was < 500 nM.

On to `CC#CCN1C(=O)c2ccccc2Sc2cc(NC(=S)Nc3ccc(OC)cc3)cnc21` [Table 4: —CH2CCMe; 4-MeOPh; N], for which the IC50 is < 500 nM.

The same test, now with this note: Table 5; HCT116, 72 hours; read-out: Activity.
For the compound `CC=CCN1C(=O)c2ccccc2Sc2cc(Nc3ncccc3C)ccc21`, the IC50 is < 500 nM.

On to `CC=CCN1C(=O)c2ccccc2Sc2cc(Nc3ncccc3C#N)ccc21`, for which the IC50 was < 500 nM.

Consider `CC#CCN1C(=O)c2ccccc2Sc2cc(Nc3ncccc3C)cnc21`, for which the IC50 is < 500 nM.

With `CC#CCN1C(=O)c2ccccc2Sc2cc(Nc3nc(C)ccc3F)cnc21`, the IC50 is < 500 nM.

The test is the same for the next values; noted with them: Table 6; HCT116, 72 hours; read-out: Activity.
In the case of `CC#CCN1C(=O)c2ccccc2Sc2cc(NC3CC4(CC(O)C4)C3)ccc21` (stereo not drawn), the IC50 is < 500 nM.

On to `O=C1c2ccccc2Sc2cc(NC3CC(O)C3)cnc2N1CC#CCl` (stereo not drawn) [Table 6: —CH2CCCl; 3-HOcBu; CH/N; S], for which the IC50 was < 500 nM.

For `CC#CCN1C(=O)c2ccccc2Sc2cc(NC3CC(CO)C3)cnc21` (stereo not drawn) [Table 6: —CH2CCMe; 3-HOCH2-cBu; CH/N; S], the IC50 is < 500 nM.

On to `CC#CCN1C(=O)c2ccccc2Sc2cc(NC3CC4(COC4)C3)cnc21`, for which the IC50 was < 500 nM.

The test is the same for the next values; noted with them: Table 7; cell viability assay, CellTiter-Glo, 72 hours; scaffold drawing 42 with R^2, R^3, X/Y, Z; read-out: Activity.
In the case of `COCCN1C(=O)c2ccccc2Sc2cc(NC(=O)c3cc(F)c(OC)c(F)c3)ccc21` [—(CH2)2OMe; 3,5-F2,4-MeOPh; CH/CH; S], the IC50 fell in the range of 500 to 1000 nM.

In the case of `C#Cc1cc(C(=O)Nc2ccc3c(c2)Sc2ccccc2C(=O)N3CCOC)ccn1` [—(CH2)2OMe; 2-(HCC)pyrid-4-yl; CH/CH; S], the IC50 lay in the range of 1000 to 5000 nM.

On to `COCCN1C(=O)c2ccccc2Sc2cc(NC(=O)c3ccc(C)cc3)ccc21` [—(CH2)2OMe; 4-MePh; CH/CH; S], for which the IC50 fell in the range of 1000 to 5000 nM.

Regarding `COCCN1C(=O)c2ccccc2Sc2cc(NC(=O)c3ccc4oc(=O)n(C)c4c3)ccc21`, the IC50 lay within 500 to 1000 nM.

Take `COCCN1C(=O)c2ccccc2Sc2cc(NC(=O)c3ccc(OC)c(F)c3)ccc21` [—(CH2)2OMe; 3-F,4MeOPh; CH/CH; S]: the IC50 lay in the range of 500 to 1000 nM.

For the compound `COCCN1C(=O)c2ccccc2Sc2cc(NC(=O)c3ccc4ncoc4c3)ccc21`, the IC50 fell in the range of 1000 to 5000 nM.

As to `COCCN1C(=O)c2ccccc2Sc2cc(NC(=O)c3ccc(OC)cc3)ccc21` [—(CH2)2OMe; 4-MeOPh; CH/CH; S], the IC50 was < 500 nM.

The same test, now with this note: Table 8; analogs of scaffold drawing 43 defined by R^2, R^3, X/Y, W; read-out: Activity (IC50 class, cell viability assay).
For the compound `CC#CCN1C(=O)c2ccccc2Sc2cc(NC(=O)C3CCCO3)cnc21` (stereo not drawn) [—CH2CCMe; tetrahydrofuran-2-yl; CH/CH; N], the IC50 was < 500 nM.

Regarding `CC#CCN1C(=O)c2ccccc2Sc2cc(NC(=O)C3CCNC3)ccc21` (stereo not drawn) [—CH2CCMe; pyrrolidin-3-yl; CH/CH; CH], the IC50 was in the range of 1000 to 5000 nM.

For the compound `CC#CCN1C(=O)c2ccc(F)cc2Sc2cc(NC(=O)C3CC4(CC(=NO)C4)C3)ccc21` (stereo not drawn), the IC50 was < 500 nM.

As to `CC#CCN1C(=O)c2cc(F)ccc2Sc2cc(NC(=O)c3cccc(OC)c3)ccc21` [—CH2CCMe; 3-MeOPh; CH/CF; CH], the IC50 is < 500 nM.

Consider `O=C(CC1COC1)Nc1ccc2c(c1)Sc1ccc(F)cc1C(=O)N2CC#CC1CC1` [—CH2CC^cPr; (oxetan-3-yl)CH2; CH/CF; CH], for which the IC50 was < 500 nM.

For the compound `CC#CCN1C(=O)c2cc(F)ccc2Sc2cc(NC(=O)[C@@H]3C[C@H]3CO)ccc21` (relative stereo) [—CH2CCMe; trans-2-HOCH2-cPr; CH/CF; CH], the IC50 is < 500 nM.

As to `CC#CCN1C(=O)c2cc(F)ccc2Sc2cc(NC(=O)C3CC3C(=O)OC)ccc21` (racemic) [—CH2CCMe; trans-2-MeO2C-cPr; CH/CF; CH], the IC50 is < 500 nM.

For `CO[C@H]1C[C@H](C(=O)Nc2cnc3c(c2)Sc2cc(Cl)ccc2C(=O)N3CC#CCl)C1` [—CH2CCCl; trans-3-MeOcBu; CCI/CH; N], the IC50 is < 500 nM.

With `CC#CCN1C(=O)c2cc(F)ccc2Sc2cc(NC(=O)C3CC3COC)ccc21` (stereo not drawn) [—CH2CCMe; trans-2-MeOCH2-cPr; CH/CF; CH], the IC50 was < 500 nM.

For `CO[C@H]1C[C@H](C(=O)Nc2ccc3c(c2)Sc2cc(Cl)ccc2C(=O)N3CC#CCl)C1` [—CH2CCCl; trans-3-MeOcBu; CCI/CH; CH], the IC50 was < 500 nM.

As for `CON=C1CC2(C1)CC(C(=O)Nc1ccc3c(c1)Sc1ccc(F)cc1C(=O)N3CC#CCl)C2` (stereo not drawn), the IC50 was < 500 nM.

As for `CC#CCN1C(=O)c2ccc(F)cc2Sc2cc(NC(=O)c3ccc(OCF)cc3)ccc21` [—CH2CCMe; 4-FH2COPh; CF/CH; CH], the IC50 was < 500 nM.

`CON=C1CC2(C1)CC(C(=O)Nc1cnc3c(c1)Sc1ccccc1C(=O)N3CC#CC1CC1)C2` (stereo not drawn): the IC50 is < 500 nM.

With `C#CCN1C(=O)c2ccc(Cl)cc2Sc2cc(NC(=O)C3CC4(CC(=NOC)C4)C3)cnc21` (stereo not drawn), the IC50 was < 500 nM.

For the compound `CC12CC(C(=O)Nc3cnc4c(c3)Sc3ccccc3C(=O)N4CC#CC3CC3)(C1)C2`, the IC50 is < 500 nM.

Take `CC#CCN1C(=O)c2cc(F)ccc2Sc2cc(NC(=O)C3CCCO3)ccc21` (stereo not drawn): the IC50 was < 500 nM.

As for `CO[C@H]1C[C@H](C(=O)Nc2cnc3c(c2)Sc2ccccc2C(=O)N3CC#CCl)C1` [—CH2CCCl; trans-3-MeOcBu; CH/CH; N], the IC50 is < 500 nM.

Take `CC#CCN1C(=O)c2ccccc2Sc2cc(NC(=O)CCC#N)ccc21` [—CH2CCMe; (CH2)2CN; CH/CH; CH]: the IC50 was < 500 nM.

On to `COCC1CC(C(=O)Nc2cnc3c(c2)Sc2ccccc2C(=O)N3CC#CC(F)(F)F)C1` (stereo not drawn) [—CH2CCCF3; 3-MeOCH2-cBu; CH/CH; N], for which the IC50 is < 500 nM.

For `CC#CCN1C(=O)c2ccccc2Sc2cc(NC(=O)c3cccc(CCC#N)c3)ccc21` [—CH2CCMe; 3-(2′-CNEt)Ph; CH/CH; CH], the IC50 is < 500 nM.

Regarding `CC#CCN1C(=O)c2ccccc2Sc2cc(NC(=O)C34CC(C)(C3)C4)cnc21`, the IC50 was < 500 nM.

In the case of `CC#CCN1C(=O)c2ccccc2Sc2cc(NC(=O)C3CNC(=O)C3)ccc21` (stereo not drawn) [—CH2CCMe; 2-oxo-pyrrolidin-4-yl; CH/CH; CH], the IC50 was in the range of 1000 to 5000 nM.

Regarding `CON=C1CC2(C1)CC(C(=O)Nc1cnc3c(c1)Sc1ccccc1C(=O)N3CC#CCl)C2` (stereo not drawn), the IC50 was < 500 nM.

As for `CON=C1CC2(C1)CC(C(=O)Nc1ccc3c(c1)Sc1ccc(F)cc1C(=O)N3CC#CC1CC1)C2` (stereo not drawn), the IC50 was < 500 nM.

The same test, now with this note: Table 9; HCT116, 72 hours; read-out: Activity.
Consider `COCC1CC(C(=O)Nc2ccc3c(c2)Cc2ccccc2C(=O)N3CC#CC2CC2)C1` (stereo not drawn) [Table 9: —CH2CCCPr; 3-MeOCH2-cBu; CH2], for which the IC50 was < 500 nM.

Consider `C#CCN1C(=O)c2ccccc2C(C#N)c2cc(NC(=O)C3CC(COC)C3)ccc21` (stereo not drawn) [Table 9: —CH2CCH; 3-MeOCH2-cBu; CHCN], for which the IC50 is < 500 nM.

For the compound `CC#CCN1C(=O)c2ccccc2C(C)(O)c2cc(NC(=O)c3ccc(OC)nc3)ccc21` (stereo not drawn), the IC50 was < 500 nM.

As for `CC1c2ccccc2C(=O)N(CC#CC2CC2)c2ccc(NC(=O)C3CC(O)C3)cc21` (stereo not drawn) [Table 9: —CH2CC^cPr; cis-3-OH-cBu; CHMe], the IC50 is < 500 nM.

The test is the same for the next values; noted with them: cell viability assay; Table 10 analogs of scaffold drawing 45 defined by R2, R3, X/Y, W; read-out: Activity.
`CO[C@H]1C[C@H](C(=O)Nc2cnc3c(c2)Sc2ccccc2C(=O)N3CC#CCl)C1` [—CH2CCCl; trans-3-MeOcBu; CH/CH; N]: the IC50 was < 500 nM.
